What was measured:
Assay type in all cases: biochemical
MST3 = MST3 (Homo sapiens, UniProt Q9Y6E0); test: Kinase profiling MST3; details: 100 micromolar inhibitor concentration, 100 is no change; for remaining activity at 100 µM: read-out: residual kinase activity, MST3
Source text: (§1) Any value less that 25 is considered to be highly significant inhibition.

SIK3 = SIK3 (Homo sapiens, UniProt Q9Y2K2); test: Kinase profiling SIK3; details: 100 micromolar inhibitor concentration, 100 is no change; for remaining activity at 100 µM: read-out: residual kinase activity, SIK3
Source text: as §1

MARK1 = MARK1 (Homo sapiens, UniProt Q9P0L2); test: Kinase profiling MARK1; details: 100 micromolar inhibitor concentration, 100 is no change; for remaining activity at 100 µM: read-out: residual kinase activity, MARK1
Source text: as §1

ZAP70 = biological target: T1, ZAP70 (Homo sapiens, UniProt P43403); test: Kinase profiling ZAP70; details: 100 micromolar inhibitor concentration, 100 is no change; for remaining activity at 100 µM: read-out: residual kinase activity, ZAP70
T1 sequence (P43403 1-619): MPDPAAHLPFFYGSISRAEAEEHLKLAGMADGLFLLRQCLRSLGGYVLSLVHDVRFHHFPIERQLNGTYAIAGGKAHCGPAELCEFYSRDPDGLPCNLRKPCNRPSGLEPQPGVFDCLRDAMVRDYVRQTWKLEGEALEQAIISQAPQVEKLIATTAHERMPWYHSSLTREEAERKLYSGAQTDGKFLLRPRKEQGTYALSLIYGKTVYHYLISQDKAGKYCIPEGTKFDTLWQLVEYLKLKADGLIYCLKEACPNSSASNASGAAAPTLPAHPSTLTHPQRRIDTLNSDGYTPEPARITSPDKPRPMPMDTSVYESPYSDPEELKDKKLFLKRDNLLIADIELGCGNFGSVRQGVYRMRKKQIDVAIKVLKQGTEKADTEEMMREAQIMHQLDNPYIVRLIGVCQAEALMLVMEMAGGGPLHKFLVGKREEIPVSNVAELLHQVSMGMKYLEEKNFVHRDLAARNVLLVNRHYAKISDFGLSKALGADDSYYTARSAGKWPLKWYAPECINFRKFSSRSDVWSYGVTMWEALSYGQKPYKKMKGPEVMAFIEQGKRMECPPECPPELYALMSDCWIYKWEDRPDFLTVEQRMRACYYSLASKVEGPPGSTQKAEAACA
Source text: as §1

MINK1 = MINK1 (Homo sapiens, UniProt Q8N4C8); test: Kinase profiling MINK1; details: 100 micromolar inhibitor concentration, 100 is no change; for remaining activity at 100 µM: read-out: residual kinase activity, MINK1
Source text: as §1

WNK1 = WNK1 (Homo sapiens, UniProt Q9H4A3); test: Kinase profiling WNK1; details: 100 micromolar inhibitor concentration, 100 is no change; for remaining activity at 100 µM: read-out: residual kinase activity, WNK1
Source text: as §1

MAP4K5 = MAP4K5 (Homo sapiens, UniProt Q9Y4K4); test: Kinase profiling MAP4K5; details: 100 micromolar inhibitor concentration, 100 is no change; for remaining activity at 100 µM: read-out: residual kinase activity, MAP4K5
Source text: as §1

PRAK = biological target: T2, PRAK (Homo sapiens, UniProt Q8IW41); test: Kinase profiling PRAK; details: 100 micromolar inhibitor concentration, 100 is no change; for remaining activity at 100 µM: read-out: residual kinase activity, PRAK
T2 sequence (Q8IW41 1-473): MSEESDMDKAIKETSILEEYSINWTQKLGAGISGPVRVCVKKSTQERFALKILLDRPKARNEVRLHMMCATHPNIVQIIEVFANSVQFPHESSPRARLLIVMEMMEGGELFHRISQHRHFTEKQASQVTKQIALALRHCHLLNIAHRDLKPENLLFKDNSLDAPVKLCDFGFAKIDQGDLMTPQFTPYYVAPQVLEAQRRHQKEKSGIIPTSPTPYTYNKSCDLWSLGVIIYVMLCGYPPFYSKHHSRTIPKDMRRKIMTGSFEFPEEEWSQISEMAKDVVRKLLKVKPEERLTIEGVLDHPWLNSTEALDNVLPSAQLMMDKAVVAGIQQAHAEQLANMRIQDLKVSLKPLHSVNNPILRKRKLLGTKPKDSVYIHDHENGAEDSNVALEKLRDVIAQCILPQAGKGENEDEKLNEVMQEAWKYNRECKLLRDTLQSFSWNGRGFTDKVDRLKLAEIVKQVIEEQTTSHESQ
Source text: as §1

HIPK3 = HIPK3 (Homo sapiens, UniProt Q9H422); test: Kinase profiling HIPK3; details: 100 micromolar inhibitor concentration, 100 is no change; for remaining activity at 100 µM: read-out: residual kinase activity, HIPK3
Source text: as §1

NEK2a = biological target: T3, NEK2a (Homo sapiens, UniProt P51955); test: Kinase profiling NEK2a; details: 100 micromolar inhibitor concentration, 100 is no change; for remaining activity at 100 µM: read-out: residual kinase activity, NEK2a
T3 sequence (P51955 1-445): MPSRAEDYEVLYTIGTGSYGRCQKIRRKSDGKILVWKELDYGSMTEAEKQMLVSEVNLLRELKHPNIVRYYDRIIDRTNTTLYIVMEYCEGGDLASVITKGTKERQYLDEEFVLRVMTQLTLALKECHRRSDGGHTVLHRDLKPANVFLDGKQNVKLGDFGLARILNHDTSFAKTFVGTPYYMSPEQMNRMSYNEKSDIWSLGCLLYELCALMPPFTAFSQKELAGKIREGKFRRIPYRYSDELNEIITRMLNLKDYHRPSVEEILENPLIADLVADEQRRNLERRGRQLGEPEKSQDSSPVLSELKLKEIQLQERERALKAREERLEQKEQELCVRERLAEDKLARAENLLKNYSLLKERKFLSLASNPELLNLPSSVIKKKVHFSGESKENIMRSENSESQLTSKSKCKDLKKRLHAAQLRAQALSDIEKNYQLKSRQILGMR
Source text: as §1

FGF-R1 = FGF-R1 (Homo sapiens, UniProt P11362); test: Kinase profiling FGF-R1; details: 100 micromolar inhibitor concentration, 100 is no change; for remaining activity at 100 µM: read-out: residual kinase activity, FGF-R1
Source text: as §1

TIE2 = TIE2 (Homo sapiens, UniProt Q02763); test: Kinase profiling TIE2; details: 100 micromolar inhibitor concentration, 100 is no change; for remaining activity at 100 µM: read-out: residual kinase activity, TIE2
Source text: as §1

MARK4 = biological target: T4, MARK4 (Homo sapiens, UniProt Q96L34); test: Kinase profiling MARK4; details: 100 micromolar inhibitor concentration, 100 is no change; for remaining activity at 100 µM: read-out: residual kinase activity, MARK4
T4 sequence (Q96L34 1-752): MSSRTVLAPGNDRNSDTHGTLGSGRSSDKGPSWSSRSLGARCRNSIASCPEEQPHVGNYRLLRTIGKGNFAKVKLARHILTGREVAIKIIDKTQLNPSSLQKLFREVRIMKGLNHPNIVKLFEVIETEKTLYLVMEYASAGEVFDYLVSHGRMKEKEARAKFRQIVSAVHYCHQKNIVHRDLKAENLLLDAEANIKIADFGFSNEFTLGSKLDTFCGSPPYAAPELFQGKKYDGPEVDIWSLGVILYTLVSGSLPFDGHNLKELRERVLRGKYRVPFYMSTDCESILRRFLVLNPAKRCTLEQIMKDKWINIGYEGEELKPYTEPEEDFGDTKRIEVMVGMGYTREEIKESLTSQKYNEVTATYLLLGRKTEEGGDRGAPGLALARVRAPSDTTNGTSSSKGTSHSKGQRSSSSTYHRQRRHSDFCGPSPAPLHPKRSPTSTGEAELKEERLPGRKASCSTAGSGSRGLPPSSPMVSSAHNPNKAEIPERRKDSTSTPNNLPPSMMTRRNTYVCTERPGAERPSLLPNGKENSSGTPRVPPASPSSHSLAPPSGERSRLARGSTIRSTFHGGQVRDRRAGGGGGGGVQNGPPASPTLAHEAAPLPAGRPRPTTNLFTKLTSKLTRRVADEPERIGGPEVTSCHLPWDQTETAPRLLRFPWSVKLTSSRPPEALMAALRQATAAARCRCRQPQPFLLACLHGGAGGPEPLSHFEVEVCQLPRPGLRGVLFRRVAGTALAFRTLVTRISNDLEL
Source text: as §1

Sequence of WNK1 (Q9H4A3 whole entry, species assumed): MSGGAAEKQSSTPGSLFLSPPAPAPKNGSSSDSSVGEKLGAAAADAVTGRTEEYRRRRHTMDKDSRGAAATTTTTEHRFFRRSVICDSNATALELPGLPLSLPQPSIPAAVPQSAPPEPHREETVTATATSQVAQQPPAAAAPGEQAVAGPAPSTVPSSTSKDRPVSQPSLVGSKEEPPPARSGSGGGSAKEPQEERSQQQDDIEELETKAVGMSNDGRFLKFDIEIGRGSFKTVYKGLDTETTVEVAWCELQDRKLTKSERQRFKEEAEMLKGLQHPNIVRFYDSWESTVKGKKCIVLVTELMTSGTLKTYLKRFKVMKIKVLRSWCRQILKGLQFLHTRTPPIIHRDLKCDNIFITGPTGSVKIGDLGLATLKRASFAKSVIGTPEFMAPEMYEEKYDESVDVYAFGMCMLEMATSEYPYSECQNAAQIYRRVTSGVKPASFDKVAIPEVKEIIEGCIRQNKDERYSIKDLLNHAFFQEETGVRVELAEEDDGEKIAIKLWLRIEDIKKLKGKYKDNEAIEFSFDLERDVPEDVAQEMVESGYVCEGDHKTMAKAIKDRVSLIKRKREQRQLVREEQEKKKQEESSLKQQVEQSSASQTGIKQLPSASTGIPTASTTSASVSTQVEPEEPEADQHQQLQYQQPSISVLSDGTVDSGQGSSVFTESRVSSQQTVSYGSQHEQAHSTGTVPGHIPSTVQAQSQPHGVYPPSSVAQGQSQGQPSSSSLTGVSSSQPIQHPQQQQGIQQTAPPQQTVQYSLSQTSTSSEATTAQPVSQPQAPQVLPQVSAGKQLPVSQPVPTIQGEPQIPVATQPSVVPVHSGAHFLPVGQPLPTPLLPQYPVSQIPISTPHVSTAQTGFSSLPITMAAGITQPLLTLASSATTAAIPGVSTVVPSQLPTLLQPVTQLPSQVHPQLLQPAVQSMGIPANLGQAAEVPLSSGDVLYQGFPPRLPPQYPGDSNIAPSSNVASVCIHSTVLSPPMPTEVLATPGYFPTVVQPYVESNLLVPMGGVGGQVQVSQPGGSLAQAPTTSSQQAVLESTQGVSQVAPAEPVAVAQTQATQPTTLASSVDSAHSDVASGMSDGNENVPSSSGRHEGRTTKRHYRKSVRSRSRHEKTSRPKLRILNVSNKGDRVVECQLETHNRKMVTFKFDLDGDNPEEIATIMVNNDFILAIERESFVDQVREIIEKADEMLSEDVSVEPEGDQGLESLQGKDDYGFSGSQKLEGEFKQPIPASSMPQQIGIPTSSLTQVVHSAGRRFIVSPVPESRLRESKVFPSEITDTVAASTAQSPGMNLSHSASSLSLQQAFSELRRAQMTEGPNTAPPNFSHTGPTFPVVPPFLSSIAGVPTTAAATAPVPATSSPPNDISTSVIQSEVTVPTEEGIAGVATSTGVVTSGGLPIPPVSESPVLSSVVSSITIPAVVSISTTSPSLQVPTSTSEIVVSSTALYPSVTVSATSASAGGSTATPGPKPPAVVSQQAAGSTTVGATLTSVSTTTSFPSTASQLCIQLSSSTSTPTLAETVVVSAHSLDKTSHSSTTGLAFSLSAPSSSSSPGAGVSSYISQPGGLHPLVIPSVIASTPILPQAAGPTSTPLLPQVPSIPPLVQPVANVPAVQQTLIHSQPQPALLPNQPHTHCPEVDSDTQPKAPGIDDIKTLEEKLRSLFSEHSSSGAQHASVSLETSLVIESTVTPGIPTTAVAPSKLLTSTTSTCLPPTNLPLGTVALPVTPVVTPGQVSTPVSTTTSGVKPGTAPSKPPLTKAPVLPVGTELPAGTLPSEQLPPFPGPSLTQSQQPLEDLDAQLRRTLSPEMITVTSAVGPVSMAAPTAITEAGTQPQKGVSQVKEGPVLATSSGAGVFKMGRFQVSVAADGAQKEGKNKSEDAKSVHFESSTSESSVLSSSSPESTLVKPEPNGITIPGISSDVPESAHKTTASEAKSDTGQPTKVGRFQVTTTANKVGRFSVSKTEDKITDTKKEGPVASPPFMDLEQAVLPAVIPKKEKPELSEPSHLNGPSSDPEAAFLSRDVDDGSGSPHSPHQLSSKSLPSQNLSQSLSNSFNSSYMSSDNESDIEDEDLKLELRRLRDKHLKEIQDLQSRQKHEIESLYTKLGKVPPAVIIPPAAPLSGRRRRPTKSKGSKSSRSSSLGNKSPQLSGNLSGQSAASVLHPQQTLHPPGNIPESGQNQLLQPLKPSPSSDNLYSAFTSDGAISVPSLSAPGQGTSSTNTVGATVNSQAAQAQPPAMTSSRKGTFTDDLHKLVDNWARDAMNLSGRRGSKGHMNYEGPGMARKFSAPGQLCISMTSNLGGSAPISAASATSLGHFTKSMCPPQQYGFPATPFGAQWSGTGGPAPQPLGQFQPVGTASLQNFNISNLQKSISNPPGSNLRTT
Sequence of TIE2 (Q02763 23-1124, species assumed): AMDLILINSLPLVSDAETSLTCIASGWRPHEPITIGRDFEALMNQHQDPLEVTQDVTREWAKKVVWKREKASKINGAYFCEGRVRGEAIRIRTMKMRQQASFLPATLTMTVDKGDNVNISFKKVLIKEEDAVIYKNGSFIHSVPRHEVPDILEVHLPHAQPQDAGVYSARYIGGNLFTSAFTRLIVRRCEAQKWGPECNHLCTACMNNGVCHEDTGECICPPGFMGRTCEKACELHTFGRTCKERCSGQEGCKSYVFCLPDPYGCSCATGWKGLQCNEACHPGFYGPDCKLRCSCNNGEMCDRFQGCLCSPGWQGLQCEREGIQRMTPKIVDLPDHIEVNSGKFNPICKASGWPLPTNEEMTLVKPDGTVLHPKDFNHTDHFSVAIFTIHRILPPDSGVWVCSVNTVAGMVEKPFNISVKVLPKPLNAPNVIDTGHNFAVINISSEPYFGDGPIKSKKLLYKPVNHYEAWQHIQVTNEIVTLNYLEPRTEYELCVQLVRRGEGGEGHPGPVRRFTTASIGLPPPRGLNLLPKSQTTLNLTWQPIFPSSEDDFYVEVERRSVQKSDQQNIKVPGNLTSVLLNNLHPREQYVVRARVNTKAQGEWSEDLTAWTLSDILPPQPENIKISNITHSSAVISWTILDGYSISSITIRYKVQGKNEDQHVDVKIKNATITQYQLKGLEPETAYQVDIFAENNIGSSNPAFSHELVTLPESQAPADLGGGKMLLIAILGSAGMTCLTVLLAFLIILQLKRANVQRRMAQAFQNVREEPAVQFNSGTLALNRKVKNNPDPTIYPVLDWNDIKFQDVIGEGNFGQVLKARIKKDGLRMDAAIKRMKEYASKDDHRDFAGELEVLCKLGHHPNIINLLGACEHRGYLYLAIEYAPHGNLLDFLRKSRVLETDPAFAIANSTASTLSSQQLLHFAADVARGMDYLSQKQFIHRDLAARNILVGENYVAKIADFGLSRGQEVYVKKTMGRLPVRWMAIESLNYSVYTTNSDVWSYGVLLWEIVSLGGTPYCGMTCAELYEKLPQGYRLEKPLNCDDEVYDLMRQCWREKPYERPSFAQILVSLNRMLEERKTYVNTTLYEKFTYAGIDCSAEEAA
Sequence of FGF-R1 (P11362 22-822, species assumed): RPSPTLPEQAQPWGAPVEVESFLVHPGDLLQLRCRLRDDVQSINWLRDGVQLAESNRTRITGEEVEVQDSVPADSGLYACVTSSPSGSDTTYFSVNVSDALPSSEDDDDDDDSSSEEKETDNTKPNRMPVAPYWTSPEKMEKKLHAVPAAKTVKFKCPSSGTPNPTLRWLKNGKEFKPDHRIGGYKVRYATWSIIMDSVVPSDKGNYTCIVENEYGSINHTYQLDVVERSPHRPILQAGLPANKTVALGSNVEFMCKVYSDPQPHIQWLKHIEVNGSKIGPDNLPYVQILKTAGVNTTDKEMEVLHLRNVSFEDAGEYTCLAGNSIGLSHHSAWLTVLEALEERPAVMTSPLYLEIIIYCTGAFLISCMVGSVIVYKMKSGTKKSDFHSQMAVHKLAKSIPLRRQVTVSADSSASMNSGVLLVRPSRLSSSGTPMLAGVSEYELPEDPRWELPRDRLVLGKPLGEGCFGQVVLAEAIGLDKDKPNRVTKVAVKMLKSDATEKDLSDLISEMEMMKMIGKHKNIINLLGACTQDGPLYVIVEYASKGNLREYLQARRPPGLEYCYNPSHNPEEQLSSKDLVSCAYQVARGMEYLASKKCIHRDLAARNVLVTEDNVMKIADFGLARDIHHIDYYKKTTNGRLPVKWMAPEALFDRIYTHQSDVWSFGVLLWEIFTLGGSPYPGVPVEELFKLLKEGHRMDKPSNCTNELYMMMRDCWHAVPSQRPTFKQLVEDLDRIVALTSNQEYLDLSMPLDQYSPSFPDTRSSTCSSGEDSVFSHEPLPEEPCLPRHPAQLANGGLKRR
Sequence of MARK1 (Q9P0L2 whole entry, species assumed): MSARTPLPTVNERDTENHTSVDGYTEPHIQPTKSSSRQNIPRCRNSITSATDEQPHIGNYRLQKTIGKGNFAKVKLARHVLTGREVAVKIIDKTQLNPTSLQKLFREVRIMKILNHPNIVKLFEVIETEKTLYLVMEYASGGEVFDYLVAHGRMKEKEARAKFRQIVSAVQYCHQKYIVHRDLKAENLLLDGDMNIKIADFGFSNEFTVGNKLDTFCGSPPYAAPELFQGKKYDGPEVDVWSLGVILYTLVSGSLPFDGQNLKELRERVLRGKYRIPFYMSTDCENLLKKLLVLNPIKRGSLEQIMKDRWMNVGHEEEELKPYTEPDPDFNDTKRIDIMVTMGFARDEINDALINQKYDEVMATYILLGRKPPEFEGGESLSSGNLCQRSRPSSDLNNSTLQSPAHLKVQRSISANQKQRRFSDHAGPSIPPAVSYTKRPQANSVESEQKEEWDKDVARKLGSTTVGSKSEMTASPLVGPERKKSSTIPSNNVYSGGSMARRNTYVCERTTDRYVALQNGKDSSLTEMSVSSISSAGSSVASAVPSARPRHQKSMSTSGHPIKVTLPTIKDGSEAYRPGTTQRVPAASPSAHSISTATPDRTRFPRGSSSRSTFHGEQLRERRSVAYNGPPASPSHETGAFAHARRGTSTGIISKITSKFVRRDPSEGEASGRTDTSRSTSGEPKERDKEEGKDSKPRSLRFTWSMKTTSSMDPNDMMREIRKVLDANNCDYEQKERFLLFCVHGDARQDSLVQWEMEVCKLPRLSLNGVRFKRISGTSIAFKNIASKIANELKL

Compound: O=C(Nc1nc2ccc(O)cc2s1)c1ccccn1 [Compound 03-12]
- residual kinase activity, MST3 (MST3): 85
- residual kinase activity, SIK3 (SIK3): 82
- residual kinase activity, MARK1 (MARK1): 89
- residual kinase activity, ZAP70 (ZAP70): 91
- residual kinase activity, MINK1 (MINK1): 48
- residual kinase activity, WNK1 (WNK1): 91
- residual kinase activity, MAP4K5 (MAP4K5): 74
- residual kinase activity, PRAK (PRAK): 65
- residual kinase activity, HIPK3 (HIPK3): 84
- residual kinase activity, NEK2a (NEK2a): 92
- residual kinase activity, FGF-R1 (FGF-R1): 16
- residual kinase activity, TIE2 (TIE2): 76
- residual kinase activity, MARK4 (MARK4): 90

Compound: O=C(Nc1nc2cc(O)ccc2s1)c1ccccn1 [Compound 03-13]
- residual kinase activity, MST3 (MST3): 78
- residual kinase activity, SIK3 (SIK3): 96
- residual kinase activity, MARK1 (MARK1): 99
- residual kinase activity, ZAP70 (ZAP70): 105
- residual kinase activity, MINK1 (MINK1): 31
- residual kinase activity, WNK1 (WNK1): 100
- residual kinase activity, MAP4K5 (MAP4K5): 50
- residual kinase activity, PRAK (PRAK): 90
- residual kinase activity, HIPK3 (HIPK3): 82
- residual kinase activity, NEK2a (NEK2a): 89
- residual kinase activity, FGF-R1 (FGF-R1): 81
- residual kinase activity, TIE2 (TIE2): 106
- residual kinase activity, MARK4 (MARK4): 71

Compound: COc1ccc2sc(NC(C)=O)nc2c1 [Compound 03-21]
- remaining activity at 100 µM (MST3): 91%
- remaining activity at 100 µM (SIK3): 121%
- remaining activity at 100 µM (MARK1): 98%
- remaining activity at 100 µM (ZAP70): 98%
- remaining activity at 100 µM (MINK1): 61%
- remaining activity at 100 µM (WNK1): 121%
- remaining activity at 100 µM (MAP4K5): 96%
- remaining activity at 100 µM (PRAK): 71%
- remaining activity at 100 µM (HIPK3): 86%
- remaining activity at 100 µM (NEK2a): 93%
- remaining activity at 100 µM (FGF-R1): 104%
- remaining activity at 100 µM (TIE2): 91%
- remaining activity at 100 µM (MARK4): 100%

Compound: CC(=O)Nc1nc2ccccc2s1 [Compound 03-32]
- residual kinase activity, MST3 (MST3): 87
- residual kinase activity, SIK3 (SIK3): 89
- residual kinase activity, MARK1 (MARK1): 77
- residual kinase activity, ZAP70 (ZAP70): 111
- residual kinase activity, MINK1 (MINK1): 92
- residual kinase activity, WNK1 (WNK1): 98
- residual kinase activity, MAP4K5 (MAP4K5): 95
- residual kinase activity, PRAK (PRAK): 78
- residual kinase activity, HIPK3 (HIPK3): 78
- residual kinase activity, NEK2a (NEK2a): 90
- residual kinase activity, FGF-R1 (FGF-R1): 12
- residual kinase activity, TIE2 (TIE2): 112
- residual kinase activity, MARK4 (MARK4): 91

Compound: O=C(Nc1nc2cc(O)ccc2s1)c1cccnc1 [Compound 03-33]
- residual kinase activity, MST3 (MST3): 90
- residual kinase activity, SIK3 (SIK3): 92
- residual kinase activity, MARK1 (MARK1): 103
- residual kinase activity, ZAP70 (ZAP70): 110
- residual kinase activity, MINK1 (MINK1): 51
- residual kinase activity, WNK1 (WNK1): 103
- residual kinase activity, MAP4K5 (MAP4K5): 58
- residual kinase activity, PRAK (PRAK): 83
- residual kinase activity, HIPK3 (HIPK3): 102
- residual kinase activity, NEK2a (NEK2a): 99
- residual kinase activity, FGF-R1 (FGF-R1): 102
- residual kinase activity, TIE2 (TIE2): 100
- residual kinase activity, MARK4 (MARK4): 95

Compound: O=C(Nc1nc2ccc(O)cc2s1)c1ccccc1 [Compound 03-60]
- residual kinase activity, MST3 (MST3): 54
- residual kinase activity, SIK3 (SIK3): 42
- residual kinase activity, MARK1 (MARK1): 96
- residual kinase activity, ZAP70 (ZAP70): 109
- residual kinase activity, MINK1 (MINK1): 7
- residual kinase activity, WNK1 (WNK1): 108
- residual kinase activity, MAP4K5 (MAP4K5): 31
- residual kinase activity, PRAK (PRAK): 39
- residual kinase activity, HIPK3 (HIPK3): 38
- residual kinase activity, NEK2a (NEK2a): 64
- residual kinase activity, FGF-R1 (FGF-R1): 84
- residual kinase activity, TIE2 (TIE2): 41
- residual kinase activity, MARK4 (MARK4): 67

Compound: CC(=O)Nc1nc2cc(C(F)(F)F)ccc2s1 [Compound 03-73]
- remaining activity at 100 µM (MST3): 89%
- remaining activity at 100 µM (SIK3): 103%
- remaining activity at 100 µM (MARK1): 88%
- remaining activity at 100 µM (ZAP70): 115%
- remaining activity at 100 µM (MINK1): 77%
- remaining activity at 100 µM (WNK1): 128%
- remaining activity at 100 µM (MAP4K5): 73%
- remaining activity at 100 µM (PRAK): 87%
- remaining activity at 100 µM (HIPK3): 106%
- remaining activity at 100 µM (NEK2a): 94%
- remaining activity at 100 µM (FGF-R1): 109%
- remaining activity at 100 µM (TIE2): 92%
- remaining activity at 100 µM (MARK4): 97%

Compound: CC(=O)Nc1nc2cc(C)ccc2s1 [Compound 03-76]
- residual kinase activity, MST3 (MST3): 85
- residual kinase activity, SIK3 (SIK3): 103
- residual kinase activity, MARK1 (MARK1): 94
- residual kinase activity, ZAP70 (ZAP70): 110
- residual kinase activity, MINK1 (MINK1): 63
- residual kinase activity, WNK1 (WNK1): 104
- residual kinase activity, MAP4K5 (MAP4K5): 83
- residual kinase activity, PRAK (PRAK): 75
- residual kinase activity, HIPK3 (HIPK3): 79
- residual kinase activity, NEK2a (NEK2a): 95
- residual kinase activity, FGF-R1 (FGF-R1): 106
- residual kinase activity, TIE2 (TIE2): 95
- residual kinase activity, MARK4 (MARK4): 80

— US10231954B2, “Neurodegenerative therapies” (LYTIX BIOPHARMA AS, priority 2014, dated 2019)
